{
  "source": "patent US20240025862A1",
  "about": "“SUBSTITUTED N-PHENYLURACILS AND SALTS THEREOF, AND USE THEREOF AS HERBICIDAL ACTIVE SUBSTANCES” (Bayer Aktiengesellschaft, priority 2020, published 2024)",
  "type_in_all_cases": "in vivo",
  "key": {"Zea mays (ZEAMX)": {"test_system": "Zea mays (ZEAMX)", "assay": "Post-emergence crop plant compatibility, greenhouse pot test", "conditions": "1.25 g/ha, vs untreated controls", "procedure,_shortened": "(§1)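 Seeds are sown in sandy loam and grown under controlled greenhouse conditions. At the one-leaf stage (2–3 weeks), foliage is sprayed with the formulated compound in water containing 0.5% additive at 600 l/ha. About 3 weeks later, injury is rated visually in % against untreated plants.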"}, "Glycine max (GLXMA)": {"test_system": "Glycine max (GLXMA)", "assay": "Post-emergence crop plant compatibility, greenhouse pot test", "procedure,_shortened": "as §1"}, "Brassica napus (BRSNW)": {"test_system": "Brassica napus (BRSNW)", "assay": "Post-emergence crop plant compatibility, greenhouse pot test", "conditions": "1.25 g/ha, vs untreated controls", "procedure,_shortened": "as §1"}, "[1]": {"test_system": "Alopecurus myosuroides (ALOMY)", "assay": "Post-emergence herbicidal action, greenhouse pot test (also comparative test C)", "procedure,_shortened": "(§2)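 Greenhouse pot plants in sandy loam were sprayed post-emergence at the one-leaf stage (2–3 weeks after sowing) with WP or EC formulations plus 0.5% additive at 600 l/ha water. Activity was rated visually after about 3 weeks versus untreated controls (100% = dead, 0% = like control); rates were 20 g/ha or less, and 5 g/ha or less in the comparative test.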"}, "Setaria viridis (SETVI)": {"test_system": "Setaria viridis (SETVI)", "assay": "Post-emergence herbicidal action, greenhouse pot test (also comparative test C)", "procedure,_shortened": "as §2"}, "[2]": {"test_system": "Echinochloa crus-galli (ECHCG)", "assay": "Post-emergence herbicidal action, greenhouse pot test (also comparative test C)", "procedure,_shortened": "as §2"}, "[3]": {"test_system": "Matricaria inodora (MATIN)", "assay": "Post-emergence herbicidal action, greenhouse pot test (also comparative test C)", "procedure,_shortened": "as §2"}, "Oryza sativa (ORYSA)": {"test_system": "Oryza sativa (ORYSA)", "assay": "Post-emergence crop plant compatibility, greenhouse pot test (also comparative test C)", "procedure,_shortened": "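Rice and other crops sprayed post-emergence at one-leaf stage (2–3 weeks after sowing) with WP or EC formulations plus 0.5% additive at 600 l/ha water. Visual rating about 3 weeks later versus untreated controls (100% = dead, 0% = like control); suffixes a–c denote different doses.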"}, "[4]": {"conditions": "application rate of 5 g or less per hectare, tables C1 to C4"}, "[5]": {"conditions": "comparative test C, application rate 1.25 g/ha"}},
  "data": [
    {"smiles": "COCCOC(=O)COc1ccccc1Oc1cc(-n2c(=O)cc(C(F)(F)F)n(C)c2=O)c(F)cc1Cl", "note": "[I.7-1, 2-Methoxyethyl (2-{2-chloro-4-fluoro-5-[3-methyl-2,6-dioxo-4-(trifluoromethyl)-3,6-dihydropyrimidin-1(2H)-yl]phenoxy}phenoxy)acetate]", "values": [
      {"measurement": "Post-emergence action against ZEAMX (crop plant compatibility)", "setting": "Zea mays (ZEAMX)", "result": 20, "unit": "%"},
      {"measurement": "Post-emergence action against GLXMA in %", "setting": "Glycine max (GLXMA); 1.25 g/ha", "result": 10, "unit": "%"},
      {"measurement": "Post-emergence action against GLXMA in %", "setting": "Glycine max (GLXMA); 5 g/ha", "result": 10, "unit": "%"},
      {"measurement": "Post-emergence action against GLXMA in %", "setting": "Glycine max (GLXMA); 20 g/ha", "result": 10, "unit": "%"},
      {"measurement": "Post-emergence action against BRSNW (crop plant compatibility)", "setting": "Brassica napus (BRSNW)", "result": 20, "unit": "%"},
      {"measurement": "pest or weed control at 5 g/ha", "setting": "[1]; Alopecurus myosuroides, 504 h, 5 g/ha, rated visually after about 3 weeks vs untreated controls, 100% = plants have died, read-out: Post-emergence action at 5 g/ha against ALOMY in %", "result": 80, "unit": "%"},
      {"measurement": "pest or weed control at 20 g/ha", "setting": "[1]; Alopecurus myosuroides, 504 h, 20 g/ha, rated visually after about 3 weeks vs untreated controls, 100% = plants have died, read-out: Post-emergence action at 20 g/ha against ALOMY in %", "result": 100, "unit": "%"},
      {"measurement": "herbicidal efficacy against ALOMY by comparison with literature compound a-17 / 3-14", "setting": "[1]; [4]", "result": "distinct improvement in herbicidal efficacy"},
      {"measurement": "pest or weed control at 20 g/ha", "setting": "Setaria viridis (SETVI); Setaria viridis, 504 h, 20 g/ha, read-out: Post-emergence action against SETVI", "result": 100, "unit": "%"},
      {"measurement": "pest or weed control at 1.25 g/ha", "setting": "Setaria viridis (SETVI); Setaria viridis, 504 h, dosage 1.25 g/ha, read-out: Post-emergence action against SETVI in %", "result": 100, "unit": "%"},
      {"measurement": "pest or weed control at 5 g/ha", "setting": "Setaria viridis (SETVI); Setaria viridis, 504 h, dosage 5 g/ha, read-out: Post-emergence action against SETVI in %", "result": 100, "unit": "%"},
      {"measurement": "herbicidal efficacy against SETVI by comparison with literature compound a-17 / 3-14", "setting": "Setaria viridis (SETVI); [4]", "result": "distinct improvement in herbicidal efficacy"},
      {"measurement": "SETVI (efficacy in %)", "setting": "Setaria viridis (SETVI); [5]", "result": 100, "unit": "%"},
      {"measurement": "Post-emergence action at 1.25 g/ha against ECHCG in %", "setting": "[2]; 1.25 g/ha, rated visually after about 3 weeks vs untreated controls, 100% = plants have died", "result": 90, "unit": "%"},
      {"measurement": "pest or weed control at 5 g/ha", "setting": "[2]; Echinochloa crus-galli, 504 h, dosage 5 g/ha, read-out: Post-emergence action against ECHCG in %", "result": 100, "unit": "%"},
      {"measurement": "pest or weed control at 20 g/ha", "setting": "[2]; Echinochloa crus-galli, 504 h, dosage 20 g/ha, read-out: Post-emergence action against ECHCG in %", "result": 90, "unit": "%"},
      {"measurement": "herbicidal efficacy against ECHCG by comparison with literature compound a-17 / 3-14", "setting": "[2]; [4]", "result": "distinct improvement in herbicidal efficacy"},
      {"measurement": "ECHCG (efficacy in %)", "setting": "[2]; [5]", "result": 90, "unit": "%"},
      {"measurement": "pest or weed control at 1.25 g/ha", "setting": "[3]; Tripleurospermum inodorum, 504 h, dosage 1.25 g/ha, read-out: Post-emergence action against MATIN in %", "result": 100, "unit": "%"},
      {"measurement": "pest or weed control at 5 g/ha", "setting": "[3]; Tripleurospermum inodorum, 504 h, dosage 5 g/ha, read-out: Post-emergence action against MATIN in %", "result": 100, "unit": "%"},
      {"measurement": "pest or weed control at 20 g/ha", "setting": "[3]; Tripleurospermum inodorum, 504 h, dosage 20 g/ha, read-out: Post-emergence action against MATIN in %", "result": 100, "unit": "%"},
      {"measurement": "herbicidal efficacy against MATIN by comparison with literature compound a-17 / 3-14", "setting": "[3]; [4]", "result": "distinct improvement in herbicidal efficacy"},
      {"measurement": "MATIN (efficacy in %)", "setting": "[3]; [5]", "result": 100, "unit": "%"},
      {"measurement": "compatibility with respect to the crop plant Oryza sativa (ORYSA) by comparison with literature compound a-17 / 3-14", "setting": "Oryza sativa (ORYSA); application rate of 1.25 g per hectare, table C5", "result": "distinct improvement in compatibility"},
      {"measurement": "ORYSA (efficacy in %)", "setting": "Oryza sativa (ORYSA); comparative test C, application rate 1.25 g/ha, crop plant compatibility", "result": 0, "unit": "%"}
    ]}
  ]
}
